Assay results published in patent US20230285516A1 (priority 2020, published 2023).
Entries after “also recorded” stand apart in the source; their conditions may differ.

Key:
IL-10 = IL-10 in co-culture supernatants (ELISA); type: cell-based, human; conditions: RA or OA co-cultures, day 7 vs. day 1 of culture
Experimental: Cartilage and synovium co-cultures were performed from 9 patients with RA and 8 patients with OA who underwent hip or knee replacement (Table 1). Joint tissue was cultured with (a) RPMI (control), (b) 1% type I polymerized collagen, for 7 days. The supernatants and tissues of days 1 and 7 were […] collected. In the culture supernatants the concentration of IL-1β, IL-8, IL-10, IL-12, TNF-α and IFN-γ was quantified by ELISA and the results were normalized with total protein concentration. The expression of IL-1β and TNF-α was evaluated using histochemistry.
FIG. 6. Effect of type I polymerized collagen on IL-10 expression in supernatants of cartilage and synovial tissue co-cultures from patients with rheumatoid arthritis (RA) or osteoarthritis (OA). The data represent the mean±SD of 9 co-cultures of cartilage and synovium from patients with RA and of 8 co-cultures of patients with OA. Each culture was performed in triplicate for each condition. The results were normalized with the total protein concentration of the supernatant, determined by the Folin-Lowry micromethod. AR: left panel. OA: panel on the right. Basal: tissue in basal conditions.

TNF-α = TNF-α gene expression in co-cultured tissues (RT-PCR); type: cell-based, human; conditions: vs control
Source text: (§1) FIG. 7. Effect of type I polymerized collagen on the gene expression of pro- and anti-inflammatory cytokines and factors in the tissues of cartilage and synovial tissue co-cultures of patients with rheumatoid arthritis (RA). (A) Quantification of TNF-α, IL-6 and IL-10 gene expression and (B) Quantification of IL-23 and Foxp3 gene expression by RT-PCR in synovial membrane tissues and cartilage co-cultured for 7 days. The bars show the mean±SD of the transcript levels of the samples normalized through the expression of the housekeeping gene GADPH determined by 2ΔΔCt. The data represent the mean±SD of 9 cartilage and synovial co-cultures from RA patients. Each culture was performed in triplicate for each condition. Basal: tissue in basal conditions.
(§2) FIG. 8. Effect of type I polymerized collagen on the gene expression of pro- and anti-inflammatory cytokines and factors in the tissues of cartilage and synovial co-cultures of patients with Osteoarthritis (OA). (A) Quantification of IL-1β, INF-α, IL-6 and IL-10 gene expression, (B) IL-23 and Foxp3 by RT-PCR in co-cultured cartilage and synovial membrane tissues for 7 days. The bars show the mean±SD of the transcript levels of the samples normalized through the expression of the housekeeping gene GADPH determined by 2ΔΔCt. The data represent the mean±SD of 8 co-cultures from patients with OA. […]

IL-23 = IL-23 gene expression in co-cultured tissues (RT-PCR); type: cell-based, human; conditions: co-cultures from patients with RA, vs control
Source text: as §1

Foxp3 = Foxp3 gene expression in co-cultured tissues (RT-PCR); type: cell-based, human; conditions: vs control
Source text: as §1, §2

mice with CIA = experiment: Histopathological analysis of hind legs, collagen-induced arthritis (CIA) models; type: in vivo; conditions: H&E and PAS, intramuscular weekly for 6 weeks
Experimental: (§3) Early Arthritis Model. Fifty mice with the same characteristics were immunized at the base of the tail with 100 μg of chicken type II collagen emulsified in complete Freund's adjuvant. The boost was applied on day 21 at the base of the tail with 100 μg of type II collagen emulsified with Freund's incomplete adjuvant. On the same boosting day, the treatments (a-d) were applied every week for six weeks. Three animals were euthanized in the sixth week and three in the thirteenth week. The spleen, lymph nodes, joint tissue, liver, lungs, kidneys and heart were obtained in order to assess the inflammatory infiltrate, the predominant cell populations and the expression of pro- and anti-inflammatory cytokines.
(§4) Established Arthritis Model. Arthritis was induced as in the previous model in 50 mice and the treatments were applied intramuscularly, after 2 weeks of the boost, every week for 6 weeks. Three animals were euthanized in the eighth week and three in the fifteenth week. The spleen, lymph nodes, joint tissue, liver, lungs, kidneys and heart were obtained in order to assess the inflammatory infiltrate, the predominant cell populations and the expression of pro- and anti-inflammatory cytokines.
Histological evaluation. The inflammatory infiltrate and tissue architecture were evaluated by H&E and Masson's trichrome staining and the content of proteoglycans, with the PAS technique. […]

Th17 (CD4+/IL-17+) cells = experiment: FACS of spleen Th17 cells in CIA models; type: in vivo, mice; conditions: CIA model, fold
Experimental: as §3
Established Arthritis Model. Arthritis was induced as in the previous model in 50 mice and the treatments were applied intramuscularly, after 2 weeks of the boost, every week for 6 weeks. Three animals were euthanized in the eighth week and three in the fifteenth week. The spleen, lymph nodes, joint tissue, liver, lungs, kidneys and heart were obtained in order to assess the inflammatory infiltrate, the predominant cell populations and the expression of pro- and anti-inflammatory cytokines. […]
FIG. 10. […] The intracellular production of IL-17A, IL-4, IFN-γ and Foxp3 by CD4+ T cells was detected by flow cytometry. The results are representative of 6 mice analyzed in each group. […]

Treg (CD4+/FOXP3+) cells = experiment: FACS of spleen Foxp3+ regulatory T cells in CIA models; type: in vivo, mice
Experimental: as §3, §4
Cytometric evaluation. Using FACS, the percentage of populations of Th1 ([…]), Th2 (CD4^+/IL-4^+), Treg (CD4^+/FOXP3^+) Th17 (CD4^+/IL-17^+) and dendritic (CD4−/CD11c^+) cells in spleen cells.
FIG. 10. Effect of type I polymerized collagen in the early (preventive) and long-standing (late or palliative) arthritis model on the percentage of spleen CD4+ T cell subpopulations. (A) Spleen cells obtained ex vivo in the early arthritis model during the first sacrifice. (B) Spleen cells obtained ex vivo in the early arthritis model during the second sacrifice. (C) Spleen cells obtained ex vivo in the long-standing arthritis model during the first sacrifice. […] The intracellular production of IL-17A, IL-4, IFN-γ and Foxp3 by CD4+ T cells was detected by flow cytometry. The results are representative of 6 mice analyzed in each group. […]

dormant cells = conditions: Jou I-M 2005; Furuzawa-Carballeda 2003; cited from earlier work
[1] = co-cultures from patients with OA
[2] = co-cultures from patients with RA
[3] = severe to semi-critical disease

Substance: collagen-polyvinylpyrrolidone [type I polymerized collagen]
- increase of IL-10 concentration in the supernatants (IL-10): ≥ 10 times
- gene expression of TNF-α (TNF-α; [1]): negative regulation
- transcription of TNF-α gene (TNF-α; [2]): negatively regulated
- transcription of IL-23 gene (IL-23): negatively regulated
- gene expression of Foxp3 (Foxp3; [1]): positive regulation
- transcription of FOXP3 gene (Foxp3; [2]): positively
- histopathology of joint tissue (inflammation, tissue architecture) (mice with CIA): decreased the degree of inflammation and preserved the joint structure; also recorded: maintained a tissue architecture similar to normal
- negative regulation of the subpopulation of Th17 cells (Th17 (CD4+/IL-17+) cells): 1.5-2.0 ×
- positive regulation of Tregs cells (Treg (CD4+/FOXP3+) cells; CIA model, fold): 5.0-6.0 ×
- Foxp3+ regulatory T cells (Treg (CD4+/FOXP3+) cells; early and long-standing arthritis, first and second sacrifice, vs placebo): increase
- fever, alterations in heart rate, respiratory rate, headache and arthralgias (SARS-CoV2 (Covid-19); after 7 days): disappearance
- adverse effects (SARS-CoV2 (Covid-19); [3]): No adverse effects were detected, except for pain at the application site
- persistence of pain at the application site (SARS-CoV2 (Covid-19); [3]): 5 to 15 min
- response of dormant cells (dormant cells): does not induce any response
